Reference: the CheMixHub viscosity set

Experiment: xn = mol fraction of the nth substance listed

OCCO + CN(C)C=O
Conditions | viscosity [mPa·s]
293.15 K, 101 kPa, x2 = 0.0864 | 16.12
293.15 K, 101 kPa, x2 = 0.1758 | 11.93
293.15 K, 101 kPa, x2 = 0.3623 | 6.277
293.15 K, 101 kPa, x2 = 0.5609 | 3.23
293.15 K, 101 kPa, x2 = 0.7734 | 1.66
293.15 K, 101 kPa, x2 = 0.8848 | 1.191
298.15 K, 100 kPa, x1 = 0.1049 | 1.27
298.15 K, 100 kPa, x1 = 0.2019 | 1.64
298.15 K, 100 kPa, x1 = 0.3063 | 2.27
298.15 K, 100 kPa, x1 = 0.3993 | 2.9
298.15 K, 100 kPa, x1 = 0.4986 | 3.95
298.15 K, 100 kPa, x1 = 0.6048 | 5.35
298.15 K, 100 kPa, x1 = 0.7069 | 7.24
298.15 K, 100 kPa, x1 = 0.8032 | 9.44
298.15 K, 100 kPa, x1 = 0.9054 | 12.85
298.15 K, 101 kPa, x1 = 0.5408 | 3.065
298.15 K, 101 kPa, x2 = 0.0864 | 13.24
298.15 K, 101 kPa, x2 = 0.1758 | 9.921
298.15 K, 101 kPa, x2 = 0.3623 | 5.381
298.15 K, 101 kPa, x2 = 0.5609 | 2.852
298.15 K, 101 kPa, x2 = 0.7734 | 1.518
298.15 K, 101 kPa, x2 = 0.8848 | 1.105
303.15 K, 100 kPa, x1 = 0.1049 | 1.23
303.15 K, 100 kPa, x1 = 0.2019 | 1.52
303.15 K, 100 kPa, x1 = 0.3063 | 2.03
303.15 K, 100 kPa, x1 = 0.3993 | 2.63
303.15 K, 100 kPa, x1 = 0.4986 | 3.6
303.15 K, 100 kPa, x1 = 0.6048 | 4.53
303.15 K, 100 kPa, x1 = 0.7069 | 6.12
303.15 K, 100 kPa, x1 = 0.8032 | 7.92
303.15 K, 100 kPa, x1 = 0.9054 | 10.48
303.15 K, 101 kPa, x2 = 0.0864 | 10.91
303.15 K, 101 kPa, x2 = 0.1758 | 8.25
303.15 K, 101 kPa, x2 = 0.3623 | 4.639
303.15 K, 101 kPa, x2 = 0.5609 | 2.551
303.15 K, 101 kPa, x2 = 0.7734 | 1.392
303.15 K, 101 kPa, x2 = 0.8848 | 1.027
308.15 K, 100 kPa, x1 = 0.1049 | 1.15
308.15 K, 100 kPa, x1 = 0.2019 | 1.4
308.15 K, 100 kPa, x1 = 0.3063 | 1.81
308.15 K, 100 kPa, x1 = 0.3993 | 2.41
308.15 K, 100 kPa, x1 = 0.4986 | 3.16
308.15 K, 100 kPa, x1 = 0.6048 | 4.05
308.15 K, 100 kPa, x1 = 0.7069 | 5.18
308.15 K, 100 kPa, x1 = 0.8032 | 6.83
308.15 K, 100 kPa, x1 = 0.9054 | 8.79
308.15 K, 101 kPa, x1 = 0.0257 | 0.758
308.15 K, 101 kPa, x1 = 0.0458 | 0.816
308.15 K, 101 kPa, x1 = 0.0974 | 0.872
308.15 K, 101 kPa, x1 = 0.1399 | 0.956
308.15 K, 101 kPa, x1 = 0.1921 | 1.151
308.15 K, 101 kPa, x1 = 0.2568 | 1.132
308.15 K, 101 kPa, x1 = 0.2919 | 1.453
308.15 K, 101 kPa, x1 = 0.3715 | 1.288
308.15 K, 101 kPa, x1 = 0.3822 | 1.814
308.15 K, 101 kPa, x1 = 0.4762 | 1.898
308.15 K, 101 kPa, x1 = 0.4917 | 2.392
308.15 K, 101 kPa, x1 = 0.5807 | 2.801
308.15 K, 101 kPa, x1 = 0.5882 | 3.131
308.15 K, 101 kPa, x1 = 0.6745 | 3.878
308.15 K, 101 kPa, x1 = 0.6889 | 4.137
308.15 K, 101 kPa, x1 = 0.7677 | 5.167
308.15 K, 101 kPa, x1 = 0.783 | 5.498
308.15 K, 101 kPa, x1 = 0.8456 | 6.582
308.15 K, 101 kPa, x1 = 0.885 | 7.454
308.15 K, 101 kPa, x1 = 0.9229 | 8.355
308.15 K, 101 kPa, x1 = 0.9484 | 9.02
308.15 K, 101 kPa, x1 = 0.968 | 10.48
308.15 K, 101 kPa, x2 = 0.0864 | 9.133
308.15 K, 101 kPa, x2 = 0.1758 | 7.023
308.15 K, 101 kPa, x2 = 0.3623 | 4.044
308.15 K, 101 kPa, x2 = 0.5609 | 2.289
308.15 K, 101 kPa, x2 = 0.7734 | 1.285
308.15 K, 101 kPa, x2 = 0.8848 | 0.957
313.15 K, 100 kPa, x1 = 0.1049 | 1.08
313.15 K, 100 kPa, x1 = 0.2019 | 1.28
313.15 K, 100 kPa, x1 = 0.3063 | 1.67
313.15 K, 100 kPa, x1 = 0.3993 | 2.24
313.15 K, 100 kPa, x1 = 0.4986 | 2.82
313.15 K, 100 kPa, x1 = 0.6048 | 3.47
313.15 K, 100 kPa, x1 = 0.7069 | 4.54
313.15 K, 100 kPa, x1 = 0.8032 | 5.68
313.15 K, 100 kPa, x1 = 0.9054 | 7.45
313.15 K, 101 kPa, x2 = 0.0864 | 7.725
313.15 K, 101 kPa, x2 = 0.1758 | 5.998
313.15 K, 101 kPa, x2 = 0.3623 | 3.551
313.15 K, 101 kPa, x2 = 0.5609 | 2.064
313.15 K, 101 kPa, x2 = 0.7734 | 1.185
313.15 K, 101 kPa, x2 = 0.8848 | 0.8951
318.15 K, 100 kPa, x1 = 0.1049 | 0.96
318.15 K, 100 kPa, x1 = 0.2019 | 1.21
318.15 K, 100 kPa, x1 = 0.3063 | 1.53
318.15 K, 100 kPa, x1 = 0.3993 | 2.12
318.15 K, 100 kPa, x1 = 0.4986 | 2.43
318.15 K, 100 kPa, x1 = 0.6048 | 3.05
318.15 K, 100 kPa, x1 = 0.7069 | 3.98
318.15 K, 100 kPa, x1 = 0.8032 | 5.04
318.15 K, 100 kPa, x1 = 0.9054 | 6.45
318.15 K, 101 kPa, x2 = 0.0864 | 6.606
318.15 K, 101 kPa, x2 = 0.1758 | 5.171
318.15 K, 101 kPa, x2 = 0.3623 | 3.139
318.15 K, 101 kPa, x2 = 0.5609 | 1.873
318.15 K, 101 kPa, x2 = 0.7734 | 1.096
318.15 K, 101 kPa, x2 = 0.8848 | 0.8415
323.15 K, 100 kPa, x1 = 0.1049 | 0.87
323.15 K, 100 kPa, x1 = 0.2019 | 1.08
323.15 K, 100 kPa, x1 = 0.3063 | 1.38
323.15 K, 100 kPa, x1 = 0.3993 | 1.92
323.15 K, 100 kPa, x1 = 0.4986 | 2.19
323.15 K, 100 kPa, x1 = 0.6048 | 2.8
323.15 K, 100 kPa, x1 = 0.7069 | 3.53
323.15 K, 100 kPa, x1 = 0.8032 | 4.4
323.15 K, 100 kPa, x1 = 0.9054 | 5.59
323.15 K, 101 kPa, x2 = 0.0864 | 5.671
323.15 K, 101 kPa, x2 = 0.1758 | 4.507
323.15 K, 101 kPa, x2 = 0.3623 | 2.789
323.15 K, 101 kPa, x2 = 0.5609 | 1.711
323.15 K, 101 kPa, x2 = 0.7734 | 1.022
323.15 K, 101 kPa, x2 = 0.8848 | 0.7911
